In patent US9556113B2, “Combination uses of dichloroacetate and oxamate, and their prodrugs, for cancer treatment” (The South Dakota Board of Regents, priority 2014, dated 2017):

Assays:
E6E7/Ras MTE cells [1] = experiment: Live cell number, trypan blue exclusion assay; type: cell-based, mouse; settings: 1 mM, 2.5 mM and 5 mM, one day, vs DMSO
Procedure: (§1) FIG. 4 illustrates prodrugs AT-N4-001 and AT-N4-002 inhibiting cell proliferation and colony growth of E6E7/Ras MTE cells. (A) E6E7/Ras MTE cultures were treated with DMSO (Con), AT-N4-001, or AT-N4-[…] 002 at the indicated concentration for one day. Live cell number was then determined using a trypan blue exclusion assay. (B) E6E7/Ras MTE cells were seeded on 100-mm plate at 500 cells per plate (in triplicate). After one day, cells were treated as indicated and allowed to grow until colonies of untreated controls reached 50 or more cells (7 days). Plates were stained with Coomassie blue to visualize the colonies. (C) Quantification of colonies described in B. Colonies with more than 15 cells were counted.
E6E7/Ras MTE cells are mouse tonsilar epithelial cells that have been transformed by HPV oncogenes E6 and E7 together with activated ras. They form tumors in mice and are a model of human HPV+HNSCC. These cells were treated in culture with either vehicle control (DMSO), AT-N4-001, or AT-N4-002 at concentrations of 1 mM, 2.5 mM and 5 mM for one day. Live cells were counted using a hemocytometer (FIG. 4A). […] The effects of the compounds on clonogenic growth of the cells were also tested. E6/E7/Ras MTE cells were seeded in 100 mm plates in triplicate, and the next day cells were treated with either vehicle control DMSO, 5 mM AT-N4-001, 5 mM AT-N4-002, or 10 mM DCA. […]

[2] = In vivo release of DCA and oxamate from prodrugs, blood LC/MS/MS; design: species or system female C57BL/6 mice; settings: i.p., 7.6 mg/mouse
Procedure: FIG. 16 provides LC/MS chromatograms derived from blood samples of mice dosed with prodrug 1 (AT-N4-001) (A). Mice were dosed with prodrug 1 (7.6 mg/mouse) by i.p. Blood samples were collected at 5 min and 25 min for mice dosed with prodrug 1 through retro-orbital bleeding with mice under general anesthesia. After protein precipitation by acetonitrile, samples were analyzed by LC/MS/MS. For samples derived from mice dosed with prodrug 1, the electrospray ion source was operated in the negative ionization mode for four minutes to detect DCA and oxamate before switched to the positive ionization mode to detect prodrug 1. Selected reaction monitoring (SRM) was performed to monitor the mass transition of 386→297 (1), 127→83 (DCA) and selected ion monitoring (SIM) was performed to monitor oxamate at the m/z of 88.0.
FIG. 17 provides LC/MS chromatograms derived from blood samples of mice dosed with prodrug 2 (AT-N4-002) (B). Mice were dosed with prodrug 2 (7.6 mg/mouse) by i.p. Blood samples were collected at 5 min and 30 min for a mouse dosed with prodrug 2 through retro-orbital bleeding with mice under general anesthesia. After protein precipitation by acetonitrile, samples were analyzed by LC/MS/MS. For samples derived from mice dosed with prodrug 2, all the parameters were the same as set for prodrug 1 except the electrospray ion source was operated in the negative ionization mode for all the analytes. Prodrug 2 was detected by monitoring the mass transition of 384→126.
In vivo release of the prodrugs was investigated with female C57BL/6 mice. Mice were housed four in a cage and received food and water ad libitum. All mice were used at approximately 7-10 weeks of age and given at least one week break after arrival. All experimental protocols were approved by the Institutional Animal Care and Use Committee at South Dakota State University. A prodrug (1 or 2), suspended in 3% (v/v) Tween 80 in saline (30.4 mg/ml), was administered (7.6 mg/mouse) to mice by i.p. Blood samples were obtained through retro-orbital bleeding with mice under general anesthesia through the use of isoflurane. The blood samples were immediately frozen in liquid nitrogen and stored at −80° C. freezer before LC/MS/MS analysis.
The blood sample was quickly thawed at 37° C. The sample (200 μl) was first mixed with acetonitrile ([…]) and centrifuged at 14000 rpm for 2 min at 4° C. The precipitates were washed with additional acetonitrile (2×200 μl) and centrifuged. […]
LC/MS/MS analysis was completed on a ThermoFinnigan TSQ Quantum Ultra triple quadrupole mass spectrometer coupled with an Agilent Eclipse XDB-C18 column ([…], 5 μm) equipped with an Agilent XDB-C8 guard column. […] Prodrug 2 was detected by monitoring the mass transition of 384→126.

E6E7/Ras MTE cells [3] = experiment: Clonogenic growth (colony formation); type: cell-based, mouse; settings: 7 days; for number of colonies compared to DCA treated cultures (FIG. 4C): 5 mM prodrug vs 10 mM DCA; for colony size (FIG. 4B): 5 mM prodrugs, 10 mM DCA, vs DMSO
Procedure: as §1
E6E7/Ras MTE cells are mouse tonsilar epithelial cells that have been transformed by HPV oncogenes E6 and E7 together with activated ras. They form tumors in mice and are a model of human HPV+HNSCC. These cells were treated in culture with either vehicle control (DMSO), AT-N4-001, or AT-N4-002 at concentrations of 1 mM, 2.5 mM and 5 mM for one day. Live cells were counted using a hemocytometer (FIG. 4A). […] The effects of the compounds on clonogenic growth of the cells were also tested. E6/E7/Ras MTE cells were seeded in 100 mm plates in triplicate, and the next day cells were treated with either vehicle control DMSO, 5 mM AT-N4-001, 5 mM AT-N4-002, or 10 mM DCA. DCA was used at a twice the concentration because the prodrugs each carry two molecules of DCA.

[4] = Chemical stability (hydrolysis) in aqueous acetonitrile, HPLC; type: physicochemical; settings: water:acetonitrile 1:1, ambient temperature, in 4 hours, 0.4 mg/mL
Procedure: FIG. 15 provides a graph of the hydrolysis of prodrug 1 (FIG. 15A) and prodrug 2 (FIG. 15B) in aqueous acetonitrile solution. Prodrug 1 or prodrug 2 (0.42 mg/mL) in aqueous acetonitrile (H2O:CH3CN=1:1) was stirred at ambient temperature. Aliquots were withdrawn and analyzed for the prodrug by HPLC as described in the experimental section.
Once the two prodrugs were obtained, their chemical stability and metabolic stability were determined. The chemical stability of prodrug 1 and prodrug 2 was determined in aqueous acetonitrile at ambient temperature. The prodrug (0.4 mg/mL) a mixture of water and acetonitrile (1:1) at ambient temperature. Aliquots were taken from the solution periodically and checked by HPLC for the presence of the prodrug. The HPLC analysis was carried out on a Beckman Coulter HPLC (System Gold) system, controlled by a system controller (32 Karat workstation with PC), equipped with a 125 gradient pumping module, a 508 autosampler with a sample cooling system, and a 168 photodiode array detector. The HPLC conditions employed an Apollo C18 column (250 mm×4.6 mm i.d., 5 μm) (Alltech, Deerfield, Ill.) and aqueous acetonitrile (50% with 0.1% TFA) as the mobile phase. The flow rate was 0.8 mL/min and the detection wavelength was 210 nm. Under the condition, the retention time for prodrugs 1 and 2 was 9.83 and 9.87 minutes respectively. […]

SMILES | live cell number (FIG. 4A) (E6E7/Ras MTE cells [1]) | release of DCA and oxamate in vivo [2] | prodrug in blood samples ([2]; after 30 min) | number of colonies compared to DCA treated cultures (FIG. 4C) (E6E7/Ras MTE cells [3]) | colony size (FIG. 4B) (E6E7/Ras MTE cells [3]) | hydrolysis of prodrug [4] | prodrug in blood samples ([2]; after 25 min)
NC(=O)C(=O)OCC(COC(=O)C(Cl)Cl)OC(=O)C(Cl)Cl (stereo not drawn) [AT-N4-002, 3-(2-amino-2-oxoacetoxy)propane-1,2-diyl bis(2,2-dichloroacetate)] | significant reductions in live cell number | quickly released DCA and oxamate | No prodrug was detected | significantly lower | approximately equal reductions in colony size | about 10% | –
NC(=O)C(=O)OC(COC(=O)C(Cl)Cl)COC(=O)C(Cl)Cl [AT-N4-001, 2-(2-Amino-2-oxoacetoxy)propane-1,3-diyl bis(2,2-dichloroacetate)] | significant reductions in live cell number | quickly released DCA and oxamate | – | significantly lower | approximately equal reductions in colony size | about 10% | No prodrug was detected
